Assay results reported in patent US10364247B2, “Preparation and use of novel protein kinase inhibitors” (Ruijin Hospital Affiliated to Shanghai Jiao Tong University …, priority 2015, dated 2019).

Key:
Experiment in all cases: KINOMEscan competition binding
[1] = biological target: T1, ABL1(H396P)-nonphosphorylated (Homo sapiens, UniProt P00519, H396P); conditions: read-out: Percent Control
T1 construct: purchased KINOMEscan (panel service)
How it was run: (§1)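 Primary screen at 10 μM; quantitative competition with immobilized active-site ligand; % Ctrl reported, stronger hits giving lower numbers.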

[2] = biological target: TNIK (Homo sapiens, UniProt Q9UKE5); conditions: read-out: Percent Control
How it was run: as §1

[3] = biological target: T2, AURKB (Homo sapiens, UniProt Q96GD4); conditions: read-out: Percent Control
T2 construct: purchased KINOMEscan (screening service)
How it was run: as §1

[4] = biological target: FLT3(N841I) (Homo sapiens, UniProt P36888, N841I); conditions: read-out: Percent Control
How it was run: as §1

[5] = biological target: T3, TAOK3 (Homo sapiens, UniProt Q9H2K8); conditions: read-out: Percent Control
T3 construct: purchased KINOMEscan (screening platform)
How it was run: as §1

[6] = biological target: EGFR(G719C) (Homo sapiens, UniProt P00533, G719C); conditions: read-out: Percent Control
How it was run: as §1

[7] = biological target: VEGFR2 (Homo sapiens, UniProt P35968); conditions: VEGFR2 (Entrez KDR), read-out: Percent Control
How it was run: as §1

[8] = biological target: ABL1-nonphosphorylated (Homo sapiens, UniProt P00519); conditions: read-out: Percent Control
How it was run: as §1

[9] = biological target: YSK4 (Homo sapiens, UniProt Q56UN5); conditions: read-out: Percent Control
How it was run: as §1

[10] = biological target: T4, ABL1(Y253F)-phosphorylated (Homo sapiens, UniProt P00519, Y253F); conditions: read-out: Percent Control
T4 construct: purchased KINOMEscan (panel service)
How it was run: as §1

[11] = biological target: SYK (Homo sapiens, UniProt P43405); conditions: read-out: Percent Control
How it was run: as §1

[12] = biological target: T5, GCN2(Kin.Dom.2, S808G) (Homo sapiens, UniProt Q9P2K8, S808G); conditions: GCN2(Kin.Dom.2, S808G) (Entrez EIF2AK4), read-out: Percent Control
T5 construct: GCN2(Kin.Dom.2, S808G)
How it was run: as §1

[13] = biological target: KIT(V559D) (Homo sapiens, UniProt P10721, V559D); conditions: read-out: Percent Control
How it was run: as §1

[14] = system: FLT3(ITD); conditions: 10 μM
How it was run: as §1

[15] = biological target: T6, EGFR (Homo sapiens, UniProt P00533); conditions: read-out: Percent Control
T6 construct: purchased KINOMEscan (panel service)
How it was run: as §1

[16] = biological target: STK36 (Homo sapiens, UniProt Q9NRP7); conditions: read-out: Percent Control
How it was run: as §1

[17] = biological target: T7, PIP5K2C (Homo sapiens, UniProt Q8TBX8); conditions: PIP5K2C (Entrez PIP4K2C), read-out: Percent Control
T7 construct: purchased KINOMEscan (screening service)
How it was run: as §1

[18] = biological target: ABL1(M351T)-phosphorylated (Homo sapiens, UniProt P00519, M351T); conditions: read-out: Percent Control
How it was run: as §1

[19] = biological target: MAP3K2 (Homo sapiens, UniProt Q9Y2U5); conditions: read-out: Percent Control
How it was run: as §1

[20] = biological target: FLT1 (Homo sapiens, UniProt P17948); conditions: read-out: Percent Control
How it was run: as §1

[21] = biological target: FLT3(K663Q) (Homo sapiens, UniProt P36888, K663Q); conditions: read-out: Percent Control
How it was run: as §1

[22] = biological target: T8, JAK3(JH1domain-catalytic) (Homo sapiens, UniProt P52333); conditions: read-out: Percent Control
T8 construct: JAK3(JH1domain-catalytic)
How it was run: as §1

[23] = biological target: T9, EGFR(T790M) (Homo sapiens, UniProt P00533, T790M); conditions: read-out: Percent Control
T9 construct: purchased KINOMEscan (screening service)
How it was run: as §1

[24] = biological target: T10, RET(V804M) (Homo sapiens, UniProt P07949, V804M); conditions: read-out: Percent Control
T10 construct: purchased KINOMEscan (panel service)
How it was run: as §1

[25] = biological target: SRMS (Homo sapiens, UniProt Q9H3Y6); conditions: read-out: Percent Control
How it was run: as §1

[26] = biological target: ABL1(F317L)-nonphosphorylated (Homo sapiens, UniProt P00519, F317L); conditions: read-out: Percent Control
How it was run: as §1

[27] = biological target: T11, FLT3(R834Q) (Homo sapiens, UniProt P36888, R834Q); conditions: read-out: Percent Control
T11 construct: purchased KINOMEscan (screening service)
How it was run: as §1

[28] = biological target: T12, EGFR(L858R, T790M) (Homo sapiens, UniProt P00533, L858R/T790M); conditions: read-out: Percent Control
T12 construct: purchased KINOMEscan (screening platform)
How it was run: as §1

[29] = biological target: HPK1 (Homo sapiens, UniProt Q92918); conditions: HPK1 (Entrez MAP4K1), read-out: Percent Control
How it was run: as §1

[30] = biological target: ERBB2 (Homo sapiens, UniProt P04626); conditions: read-out: Percent Control
How it was run: as §1

[31] = biological target: T13, ASK2 (Homo sapiens, UniProt O95382); conditions: ASK2 (Entrez MAP3K6), read-out: Percent Control
T13 construct: purchased KINOMEscan (screening service)
How it was run: as §1

[32] = biological target: T14, EGFR(L858R) (Homo sapiens, UniProt P00533, L858R); conditions: read-out: Percent Control
T14 construct: purchased KINOMEscan (panel service)
How it was run: as §1

[33] = biological target: MAP4K4 (Homo sapiens, UniProt O95819); conditions: read-out: Percent Control
How it was run: as §1

[34] = biological target: KIT(L576P) (Homo sapiens, UniProt P10721, L576P); conditions: read-out: Percent Control
How it was run: as §1

[35] = biological target: T15, BRAF(V600E) (Homo sapiens, UniProt P15056, V600E); conditions: read-out: Percent Control
T15 construct: purchased KINOMEscan (panel service)
How it was run: as §1

Sequence of MAP4K4 (O95819 whole entry): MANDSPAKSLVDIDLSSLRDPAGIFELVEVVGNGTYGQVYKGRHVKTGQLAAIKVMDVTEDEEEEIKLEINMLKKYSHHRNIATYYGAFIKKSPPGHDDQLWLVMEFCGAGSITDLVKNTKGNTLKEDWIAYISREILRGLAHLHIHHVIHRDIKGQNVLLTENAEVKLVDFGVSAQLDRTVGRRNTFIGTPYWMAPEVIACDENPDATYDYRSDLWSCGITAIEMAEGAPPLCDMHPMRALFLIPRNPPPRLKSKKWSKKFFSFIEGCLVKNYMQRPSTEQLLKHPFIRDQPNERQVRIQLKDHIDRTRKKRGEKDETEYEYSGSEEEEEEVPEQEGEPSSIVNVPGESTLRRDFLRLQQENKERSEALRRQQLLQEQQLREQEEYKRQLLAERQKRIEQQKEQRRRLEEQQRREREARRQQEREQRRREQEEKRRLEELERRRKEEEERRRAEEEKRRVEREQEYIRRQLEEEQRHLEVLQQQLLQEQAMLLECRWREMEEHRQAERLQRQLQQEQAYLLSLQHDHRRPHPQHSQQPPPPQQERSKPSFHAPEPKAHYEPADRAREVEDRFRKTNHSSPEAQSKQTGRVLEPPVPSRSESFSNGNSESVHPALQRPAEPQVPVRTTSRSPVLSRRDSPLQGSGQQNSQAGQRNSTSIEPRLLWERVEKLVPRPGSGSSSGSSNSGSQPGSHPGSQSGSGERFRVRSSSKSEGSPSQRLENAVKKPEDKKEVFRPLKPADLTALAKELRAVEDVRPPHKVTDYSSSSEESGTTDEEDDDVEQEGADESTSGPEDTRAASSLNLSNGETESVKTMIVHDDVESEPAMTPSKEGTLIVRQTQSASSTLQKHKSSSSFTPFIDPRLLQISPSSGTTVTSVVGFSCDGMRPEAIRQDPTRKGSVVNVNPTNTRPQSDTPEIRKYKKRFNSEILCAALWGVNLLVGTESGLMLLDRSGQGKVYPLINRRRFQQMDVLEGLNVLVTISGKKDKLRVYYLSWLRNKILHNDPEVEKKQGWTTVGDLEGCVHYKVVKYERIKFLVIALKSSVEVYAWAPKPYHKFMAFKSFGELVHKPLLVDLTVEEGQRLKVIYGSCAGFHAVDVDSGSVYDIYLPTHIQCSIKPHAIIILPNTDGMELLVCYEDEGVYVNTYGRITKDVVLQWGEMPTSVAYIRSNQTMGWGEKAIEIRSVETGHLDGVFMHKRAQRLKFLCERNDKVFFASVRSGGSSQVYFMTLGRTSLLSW
T12 sequence (P00533 25-1210 T790M/L858R): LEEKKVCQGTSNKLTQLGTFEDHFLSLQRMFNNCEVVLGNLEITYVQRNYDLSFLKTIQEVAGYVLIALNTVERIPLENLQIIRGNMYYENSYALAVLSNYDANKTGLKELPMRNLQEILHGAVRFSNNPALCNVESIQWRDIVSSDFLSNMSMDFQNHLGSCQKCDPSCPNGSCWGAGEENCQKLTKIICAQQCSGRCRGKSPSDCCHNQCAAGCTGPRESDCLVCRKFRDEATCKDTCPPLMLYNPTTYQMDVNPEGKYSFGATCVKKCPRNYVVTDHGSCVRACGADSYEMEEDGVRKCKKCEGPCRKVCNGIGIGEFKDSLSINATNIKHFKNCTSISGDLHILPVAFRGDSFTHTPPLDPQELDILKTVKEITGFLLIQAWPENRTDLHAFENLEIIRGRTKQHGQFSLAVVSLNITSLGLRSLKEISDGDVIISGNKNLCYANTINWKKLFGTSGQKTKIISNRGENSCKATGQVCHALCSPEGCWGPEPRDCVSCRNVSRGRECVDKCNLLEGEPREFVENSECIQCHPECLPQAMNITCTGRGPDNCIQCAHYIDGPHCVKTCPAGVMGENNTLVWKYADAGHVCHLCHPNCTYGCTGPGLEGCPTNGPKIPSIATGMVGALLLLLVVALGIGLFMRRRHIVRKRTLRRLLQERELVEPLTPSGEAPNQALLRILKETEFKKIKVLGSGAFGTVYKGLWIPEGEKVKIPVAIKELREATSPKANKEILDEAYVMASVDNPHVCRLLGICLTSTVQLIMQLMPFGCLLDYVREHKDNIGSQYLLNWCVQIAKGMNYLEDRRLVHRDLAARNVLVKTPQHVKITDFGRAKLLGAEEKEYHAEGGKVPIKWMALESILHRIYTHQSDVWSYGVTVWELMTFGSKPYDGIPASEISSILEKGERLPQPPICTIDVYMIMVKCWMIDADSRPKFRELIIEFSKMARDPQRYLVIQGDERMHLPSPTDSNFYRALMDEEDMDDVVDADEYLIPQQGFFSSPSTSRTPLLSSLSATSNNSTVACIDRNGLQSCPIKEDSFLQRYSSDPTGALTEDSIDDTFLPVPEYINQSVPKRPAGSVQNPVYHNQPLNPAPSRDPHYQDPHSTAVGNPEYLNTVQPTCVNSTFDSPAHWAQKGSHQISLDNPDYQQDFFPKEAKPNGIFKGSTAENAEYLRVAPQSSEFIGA
Sequence of STK36 (Q9NRP7 whole entry): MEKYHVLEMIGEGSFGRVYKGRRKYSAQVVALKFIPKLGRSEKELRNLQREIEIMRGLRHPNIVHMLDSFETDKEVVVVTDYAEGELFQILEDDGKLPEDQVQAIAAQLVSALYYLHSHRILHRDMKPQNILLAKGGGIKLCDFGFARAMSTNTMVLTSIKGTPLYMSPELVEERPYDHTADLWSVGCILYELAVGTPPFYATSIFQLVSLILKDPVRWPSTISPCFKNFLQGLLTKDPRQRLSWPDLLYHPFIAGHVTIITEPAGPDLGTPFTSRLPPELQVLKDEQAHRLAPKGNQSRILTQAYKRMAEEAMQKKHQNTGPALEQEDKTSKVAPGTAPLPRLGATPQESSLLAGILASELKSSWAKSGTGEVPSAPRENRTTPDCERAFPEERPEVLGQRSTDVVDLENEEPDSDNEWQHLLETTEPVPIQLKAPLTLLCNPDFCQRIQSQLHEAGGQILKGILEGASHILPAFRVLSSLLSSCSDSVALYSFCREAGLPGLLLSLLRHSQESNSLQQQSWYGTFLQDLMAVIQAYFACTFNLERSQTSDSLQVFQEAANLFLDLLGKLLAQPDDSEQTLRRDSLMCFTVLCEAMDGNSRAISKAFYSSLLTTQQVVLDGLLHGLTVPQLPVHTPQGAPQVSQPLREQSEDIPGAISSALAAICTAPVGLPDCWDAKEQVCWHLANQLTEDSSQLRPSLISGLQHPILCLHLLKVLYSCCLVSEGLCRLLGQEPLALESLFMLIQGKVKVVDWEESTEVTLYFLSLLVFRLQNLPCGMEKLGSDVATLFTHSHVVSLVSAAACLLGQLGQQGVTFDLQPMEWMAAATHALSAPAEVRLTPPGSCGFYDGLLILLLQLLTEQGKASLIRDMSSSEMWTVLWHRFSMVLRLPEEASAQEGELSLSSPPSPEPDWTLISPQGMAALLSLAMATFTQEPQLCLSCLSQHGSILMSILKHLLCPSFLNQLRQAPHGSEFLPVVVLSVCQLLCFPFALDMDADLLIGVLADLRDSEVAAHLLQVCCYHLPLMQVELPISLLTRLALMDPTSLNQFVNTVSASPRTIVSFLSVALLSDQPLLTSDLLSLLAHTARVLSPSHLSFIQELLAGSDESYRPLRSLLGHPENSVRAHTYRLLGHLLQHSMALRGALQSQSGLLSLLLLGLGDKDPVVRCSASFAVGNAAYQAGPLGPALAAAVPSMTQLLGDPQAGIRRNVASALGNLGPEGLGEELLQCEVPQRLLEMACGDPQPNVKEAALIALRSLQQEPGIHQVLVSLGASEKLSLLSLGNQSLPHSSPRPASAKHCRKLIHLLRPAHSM
Sequence of TNIK (Q9UKE5 whole entry): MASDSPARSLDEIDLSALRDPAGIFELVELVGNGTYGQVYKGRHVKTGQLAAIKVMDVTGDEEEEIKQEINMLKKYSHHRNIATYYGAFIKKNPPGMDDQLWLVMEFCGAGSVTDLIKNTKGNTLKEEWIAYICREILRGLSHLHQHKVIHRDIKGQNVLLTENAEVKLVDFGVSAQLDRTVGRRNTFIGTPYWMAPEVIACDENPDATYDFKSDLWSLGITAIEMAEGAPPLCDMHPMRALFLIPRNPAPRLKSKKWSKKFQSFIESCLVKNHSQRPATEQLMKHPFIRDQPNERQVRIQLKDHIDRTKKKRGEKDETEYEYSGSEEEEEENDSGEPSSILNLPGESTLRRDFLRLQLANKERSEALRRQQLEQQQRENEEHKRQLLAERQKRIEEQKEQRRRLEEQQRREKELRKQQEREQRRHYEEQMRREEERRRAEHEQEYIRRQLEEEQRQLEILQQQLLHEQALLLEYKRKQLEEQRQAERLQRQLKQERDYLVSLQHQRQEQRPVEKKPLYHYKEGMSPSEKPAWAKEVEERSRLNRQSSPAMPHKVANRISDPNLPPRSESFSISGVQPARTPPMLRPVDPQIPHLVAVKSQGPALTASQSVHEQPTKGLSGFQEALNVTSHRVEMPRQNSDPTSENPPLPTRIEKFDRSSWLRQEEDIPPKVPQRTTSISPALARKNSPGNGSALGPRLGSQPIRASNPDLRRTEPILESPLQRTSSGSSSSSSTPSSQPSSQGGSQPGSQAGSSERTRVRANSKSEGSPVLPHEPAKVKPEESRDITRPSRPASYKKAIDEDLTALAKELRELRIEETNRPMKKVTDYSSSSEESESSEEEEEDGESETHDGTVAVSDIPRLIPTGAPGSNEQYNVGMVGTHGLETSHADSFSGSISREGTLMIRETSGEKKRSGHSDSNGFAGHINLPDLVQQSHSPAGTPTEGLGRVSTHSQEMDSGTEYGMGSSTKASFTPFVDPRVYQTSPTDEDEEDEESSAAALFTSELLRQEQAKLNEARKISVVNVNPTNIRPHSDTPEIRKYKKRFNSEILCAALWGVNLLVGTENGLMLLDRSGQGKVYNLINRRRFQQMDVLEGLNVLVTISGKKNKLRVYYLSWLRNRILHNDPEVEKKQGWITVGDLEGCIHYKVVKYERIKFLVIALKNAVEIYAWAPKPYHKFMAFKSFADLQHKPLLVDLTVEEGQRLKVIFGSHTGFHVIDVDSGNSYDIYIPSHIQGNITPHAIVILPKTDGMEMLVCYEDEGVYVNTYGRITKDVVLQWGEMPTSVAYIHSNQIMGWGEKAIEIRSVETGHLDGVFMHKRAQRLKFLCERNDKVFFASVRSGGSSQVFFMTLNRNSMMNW

## Cc1ccc(Nc2ncc3c(n2)N(C)CN(c2cc(NC(=O)c4cccc(C(F)(F)F)c4)ccc2C)C3)cn1 [IA-9, N-(4-methyl-3-(1-methyl-7-((6-methylpyridin-3-yl)amino)-1,4-dihydropyrimido[4,5-d]pyrimidin-3(2H)-yl)phenyl)-3-(trifluoromethyl)benzamide]
[1]
  remaining binding at 10 µM: 0.05%
[2]
  remaining binding at 10 µM: 4.8%
[3]
  remaining binding at 10 µM: 15%
[4]
  remaining binding at 10 µM: 0.55%
[5]
  remaining binding at 10 µM: 29%
[6]
  remaining binding at 10 µM: 0%
[7]
  remaining binding at 10 µM: 2%
[8]
  remaining binding at 10 µM: 0.3%
[9]
  remaining binding at 10 µM: 0.3%
[10]
  remaining binding at 10 µM: 0.15%
[11]
  remaining binding at 10 µM: 4.4%
[12]
  remaining binding at 10 µM: 1.3%
[13]
  remaining binding at 10 µM: 0%
[14]
  Percent Control: 0.55 % Ctrl
[15]
  remaining binding at 10 µM: 0.05%
[16]
  remaining binding at 10 µM: 1.6%
[17]
  remaining binding at 10 µM: 19%
[18]
  remaining binding at 10 µM: 1.2%
[19]
  remaining binding at 10 µM: 5%
[20]
  remaining binding at 10 µM: 0.55%
[21]
  remaining binding at 10 µM: 0.55%
[22]
  remaining binding at 10 µM: 5%
[23]
  remaining binding at 10 µM: 13%
[24]
  remaining binding at 10 µM: 0%
[25]
  remaining binding at 10 µM: 0.95%
[26]
  remaining binding at 10 µM: 0%
[27]
  remaining binding at 10 µM: 20%
[28]
  remaining binding at 10 µM: 24%
[29]
  remaining binding at 10 µM: 3.8%
[30]
  remaining binding at 10 µM: 0%
[31]
  remaining binding at 10 µM: 7%
[32]
  remaining binding at 10 µM: 0.05%
[33]
  remaining binding at 10 µM: 0.6%
[34]
  remaining binding at 10 µM: 1.2%
[35]
  remaining binding at 10 µM: 0.1%
